Assay results: patent US6573275B1, “Bicyclic amines” (Syngenta Limited, priority 1995, dated 2003)

Each compound was assayed on peach aphid (Myzus persicae) (assay: Insecticidal test against peach aphid, infested Chinese cabbage leaves sprayed). Conditions: peach aphid (Myzus persicae) on Chinese cabbage leaves, sprayed with 500 ppm composition unless otherwise stated, mortality assessed after 3 days.
Format: in vivo
How it was run: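 Aphid-infested Chinese cabbage leaves were sprayed with compound at 500 ppm unless otherwise stated, formulated in acetone/ethanol diluted with water containing 0.05% Synperonic NP8. Mortality was assessed after 3 days.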

| SMILES | Score (grading of mortality) |
| --- | --- |
| CN1C2CCC1CC(C#N)(c1cnc(Cl)c(Cl)c1)C2 (stereo not drawn) [Compound 55, exo-3-(5,6-dichloropyrid-3-yl)-endo-3-cyano-8-methyl-8-azabicyclo[3.2.1]octane] | A (A indicates 80-100% mortality) |
| C[N+]1([O-])C2CCC1CC(C#N)(c1cncc(Cl)c1)C2 (stereo not drawn) [Compound 293] | A (A indicates 80-100% mortality) |
| N#CC1(c2cncc(Cl)c2)CC2CCC(C1)N2C(=O)OCC(Cl)(Cl)Cl (stereo not drawn) [Compound 83] | A (A indicates 80-100% mortality) |
| N#CC1(c2cncc(Cl)c2)CC2CCC(C1)N2Cc1c(F)cccc1[N+](=O)[O-] (stereo not drawn) [Compound 273] | A (A indicates 80-100% mortality) |
| N#CC1(c2cncc(Cl)c2)CC2CCC(C1)N2c1cccc(F)n1 (stereo not drawn) [Compound 128, exo-3-(5-chloropyrid-3-yl)-endo-3-cyano-8-(6-fluoropyrid-2-yl)-8-azabicyclo[3.2.1]octane] | A (A indicates 80-100% mortality) |
| C#CCN1C2CCC1CC(C#N)(c1cccnc1)C2 (stereo not drawn) [Compound 56] | A (A indicates 80-100% mortality) |
| CN1C2CCC1CC(C#N)(c1ccc(Cl)nc1)C2 (stereo not drawn) [Compound 46, exo-3-(6-chloropyrid-3-yl)-endo-3-cyano-8-methyl-8-azabicyclo[3.2.1]octane] | A (A indicates 80-100% mortality) |
| CC(=O)c1cncc(C2(C#N)CC3CCC(C2)N3C)c1 (stereo not drawn) [Compound 201, exo-3-(5-acetylpyrid-3-yl)-endo-3-cyano-8-methyl-8-azabicyclo[3.2.1]octane] | A (A indicates 80-100% mortality) |
| N#CCCN1C2CCC1CC(C#N)(c1cc(F)cc(F)c1)C2 (stereo not drawn) [Compound 26] | B (B indicates 40-79% mortality) |
| COc1ccc(C2(C#N)CC3CCC(C2)N3Cc2ccccc2)cc1 (single isomer, unassigned) [Compound 7] | C (C indicates less than 40% mortality) |
| N#CC1(c2cncc(Cl)c2)CC2CCC(C1)N2C(=O)OCCCl (stereo not drawn) [Compound 92] | A (A indicates 80-100% mortality) |
| N#CC1(c2cncc(Cl)c2)CC2CCC(C1)N2Cc1ccncc1 (stereo not drawn) [Compound 119] | A (A indicates 80-100% mortality) |
| CC(=O)Nc1nc(CN2C3CCC2CC(C#N)(c2cncc(Cl)c2)C3)cs1 (stereo not drawn) [Compound 153] | A (A indicates 80-100% mortality) |
| CC(O)CN1C2CCC1CC(C#N)(c1cncc(Cl)c1)C2 (stereo not drawn) [Compound 286] | A (A indicates 80-100% mortality) |
| N#CCCN1C2CCC1CC(C#N)(c1cncc(Cl)c1)C2 (stereo not drawn) [Compound 284, exo-3-(5-chloropyrid-3-yl)-endo-3-cyano-8-(2-cyanoethyl)-8-azabicyclo[3.2.1]octane] | A (A indicates 80-100% mortality) |
| C[C@@H](c1ccccc1)N1C2CCC1CC(C#N)(c1cncc(Cl)c1)C2 (stereo partly drawn) [Compound 122] | A (A indicates 80-100% mortality) |
| CN1C2CCC1CC(C#N)(c1cccnc1)C2 (stereo not drawn) [Compound 57] | A (A indicates 80-100% mortality) |
| CCOCCN1C2CCC1CC(C#N)(c1cncc(Cl)c1)C2 (stereo not drawn) [Compound 279] | A (A indicates 80-100% mortality) |
| CC(C)(C)N1C2CCC1CC(C#N)(c1cncc(Cl)c1)C2 (stereo not drawn) [Compound 139, exo-3-(5-chloropyrid-3-yl)-endo-3-cyano-8-(tert-butyl)-8-azabicyclo[3.2.1]octane] | A (A indicates 80-100% mortality) |
| C=CCN1C2CCC1CC(C#N)(c1cncc(Cl)c1)C2 (stereo not drawn) [Compound 76, exo-3-(5-chloropyrid-3-yl)-endo-3-cyano-8-allyl-8-azabicyclo[3.2.1]octane] | A (A indicates 80-100% mortality) |
| N#CN1C2CCC1CC(C#N)(c1cncc(Cl)c1)C2 (stereo not drawn) [Compound 169, exo-3-(5-chloropyrid-3-yl)-endo-3-cyano-8-cyano-8-azabicyclo[3.2.1]octane] | A (A indicates 80-100% mortality) |
